# Results: patent US7799913B2, “Carbonylbenzoxazine compounds for enhancing glutamatergic synaptic responses” (Cortex Pharmaceuticals, Inc., priority 2001, dated 2010)
# Tests used:
# AMPA receptors = experiment: field EPSP amplitude in field CA1 of rat hippocampal slice; assay type: cell-based; details: rat hippocampal slice
# Excerpt: The field EPSP, (excitatory post-synaptic potential) recorded in field CA1 after stimulation of CA3 axons is known to be mediated by AMPA receptors, which are present in the synapses (Kessler et al., Brain Res. 560: 337-341 (1991)). Drugs that selectively block the receptor selectively block the field EPSP (Muller et al., Science, supra). […] These effects are mirrored in the field EPSP (see, for example, Staubli et al., Psychobiology, supra; Xiao et al., Hippocampus, supra; Staubli et al., Hippocampus 2: 4958 (1992)).
# To obtain the data shown in Table I, a bipolar nichrome stimulating electrode was positioned in the dendritic layer (stratum radiatum) of the hippocampal subfield CA1 close to the border of subfield CA3, as described in Example 64. Current pulses (0.1 msec) through the stimulating electrode activate a population of the Schaffer-commissural (SC) fibers, which arise from neurons in the subdivision CA3 and terminate in synapses on the dendrites of CA1 neurons. Activation of these synapses causes them to release the transmitter glutamate. Glutamate binds to post-synaptic AMPA receptors, which then transiently open an associated ion channel and permit a sodium current to enter the postsynaptic cell. This current results in a voltage in the extracellular space (the field EPSP), which is recorded by a high impedance recording electrode positioned in the middle of the stratum radiatum of CA1.
# The intensity of the stimulation current was adjusted to produce half-maximal EPSPs (typically about 1.5-2.0 mV). Paired stimulation pulses were given every 40 sec with an interpulse interval of 200 msec, as described further in Example 64.
# Hippocampal slices were maintained in a recording chamber continuously perfused with artificial cerebrospinal fluid (ACSF). During 15-30 minute intervals, the perfusion medium was switched to one containing various concentrations of the test compounds. Responses collected immediately before and at the end of drug perfusion were superimposed in order to calculate the percent increase in EPSP amplitude.
# (§1) The physiological effects of invention compounds were tested in vitro on primary cultures of rat cortical neurons as described by Hamill, O P, et al. in Pflügers Arch 391: 85-100 (1981) or on slices of rat hippocampus according to the following procedure. Excitatory responses (field EPSPs) were measured in hippocampal slices, which were maintained in a recording chamber continuously perfused with artificial cerebrospinal fluid (ACSF). During a 15-30 minute interval, the perfusion medium was switched to one containing various concentrations of the test compounds. Responses collected immediately before and at the end of drug perfusion were superimposed in order to calculate the percent increase in EPSP amplitude.
# To conduct these tests, the hippocampus was removed from anesthetized, 2 month old Sprague-Dawley rats and in vitro slices (400 μm thick) were prepared and maintained in an interface chamber at 35° C. using conventional techniques [see, for example, Dunwiddie and Lynch, J. Physiol. 276: 353-367 (1978)]. The chamber was constantly perfused at 0.5 mL/min with ACSF containing (in mM): NaCl 124, KCl 3, KH2PO4 1.25, MgSO4 2.5, CaCl2 3.4, NaHCO3 26, glucose 10 and L-ascorbate 2. A bipolar nichrome stimulating electrode was positioned in the dendritic layer (stratum radiatum) of the hippocampal subfield CA1 close to the border of subfield CA3.
# Current pulses (0.1 msec) through the stimulating electrode activate a population of the Schaffer-commissural (SC) fibers, which arise from neurons in the subdivision CA3 and terminate in synapses on the dendrites of CA1 neurons. Activation of these synapses causes them to release the transmitter glutamate. Glutamate binds to the post-synaptic AMPA receptors, which then transiently open an associated ion channel and permit a sodium current to enter the postsynaptic cell. […]
# AMPA receptor = experiment: steady-state current induced by glutamate in cortical neurons in primary culture; assay type: cell-based, rat; details: 300 μM glutamate on cultured neurons
# Experimental: as §1
Structure (SMILES),AMP: concentration of modulator that increases the amplitude of the fEPSP by 10% (AMPA receptors) [µM],EC2X: concentration of modulator required to double the steady state current (AMPA receptor) [µM],melting point
"CCN1COc2cc3c(cc2C1=O)OCN(CC)C3=O [Example 21, 3,8-diethyl-2H,7H-1,3-oxazaperhydroino[5′,6′-4,5]benzo[e]1,3-oxazine-4,9-dione]",10,1.8,236 to 237 °C
"O=C1c2cc3c(cc2OCN1CCO)C(=O)N(CCO)CO3 [Example 59, 3,8-bis(2-hydroxyethyl)-2H,7H-1,3-oxazaperhydroino[5′,6′-4,5]benzo[e]1,3-oxazine-4,9-dione]",–,–,237 to 238 °C
"O=C(c1ccc2c(c1)OC1CCCN1C2=O)N1CCCCC1 (racemic) [Example 5, (R,S)-6-(Piperidylcarbonyl)-3aH-benzo[e]pyrrolidino[2,1-b]1,3-oxazaperhydroin-9-one]",10,2,–
"O=C1CCCN1CCCN1COc2cc3c(cc2C1=O)OC1CCCN1C3=O (racemic) [Example 27, (R,S)-3-[3-(2-oxopyrrolidinyl)propyl]-2H,6aH-pyrrolidino[2″,1″-3′,2′]1,3-oxazino[5′,6′-4,5]benzo[e]1,3-oxazaperhydroine-4,10-dione]",10,1,189 to 190 °C
"O=C1c2cc3c(cc2OC2CCCN12)OC1CCCN1C3=O [Example 2, (R,S), (R,S)-3aH,6aH-pyrrolidino[2,1-b]pyrrolidino[2″,1″-3′,2′](1,3-oxazino)[6′,5′-2,1]benzo[4,5-e]1,3-oxazaperhydroine-10,12-dione]",>10,2.6,–
"O=C1c2cc3c(cc2OCN1CCCN1CCOCC1)C(=O)N1CCCC1O3 (racemic) [Example 32, (R,S)-3-(3-morpholin-4-ylpropyl)-2H,6aH-pyrrolidino [2″,1″-3′,2′]1,3-oxazino[5′,6′-4,5]benzo[e]1,3-oxazaperhydroine-4,10-dione]",–,–,153 to 155 °C
"O=C(CN1COc2cc3c(cc2C1=O)OC1CCCN1C3=O)N1CCCC1 (racemic) [Example 34, (R,S)-3-(2-oxo-2-pyrrolidinylethyl)-2H,6aH-pyrrolidin[2″,1″-3′,2′]1,3-oxazino[5′,6′-4,5]benzo[e]1,3-oxazaperhydroine-4,10-dione]",–,–,257 to 259 °C
"O=C1c2cc3c(cc2OC2CCCN12)C(=O)N1CCOC1O3 [Example 11, (R,S), (R,S)-2H,3H,12aH,6aH-1,3-oxazolidino[2,3-b]pyrrolidino[2″,1″-2′,3′](1,3-oxazino)[5′,6′-2,1]benzo[4,5-e]1,3-oxazaperhydroine-4,10-dione]",1,0.09,–
"O=C1c2cc3c(cc2OCN1Cc1ccc2c(c1)OCO2)C(=O)N1CCCC1O3 (racemic) [Example 28, (R,S)-3-(2H-benzo[d]1,3-dioxolen-5-ylmethyl)-2H,6aH-pyrrolidino[2″,1″-3′,2′]1,3-oxazino[5′,6′-4,5]benzo[e]1,3-oxazaperhydroine-4,10-dione]",10,6,–
"CC1CCN(C(=O)c2ccc3c(c2)OC2CCCN2C3=O)CC1 (racemic) [Example 18, (R,S)-6-[(4-methylpiperidyl)carbonyl]-3aH-benzo[e]pyrrolidino[2,1-b]1,3-oxazin-9-one]",100,4,–
"O=C1c2cc3c(cc2OCN1CC(F)(F)F)C(=O)N1CCCC1O3 (racemic) [Example 29, (R,S)-3-(2,2,2-trifluoroethyl)-2H,6aH-pyrrolidino[2″,1″-3′,2′]1,3-oxazino[5′,6′-4,5]benzo[e]1,3-oxazaperhydroine-4,10-dione]",–,–,179 to 180 °C
"CCN1COc2cc3c(cc2C1=O)OC1CCCN1C3=O (racemic) [Example 23, (R,S)-3-ethyl-2H,6aH-pyrrolidino[2″,1″-3′,2′]1,3-oxazino[5′,6′-4,5]benzo[e]1,3-oxazaperhydroine-4,10-dione]",–,–,197 to 198 °C
"O=C1NCOc2cc3c(cc21)OC1CCCN1C3=O (racemic) [Example 58, (R,S)-2H,3H,6aH-pyrrolidino[2″,1″-3′,2′]1,3-oxazino[5′,6′-4,5]benzo[e]1,3-oxazaperhydroine-4,10-dione]",–,–,270 to 275 °C (dec.)
"CN1COc2cc3c(cc2C1=O)OC1CCCN1C3=O (racemic) [Example 22, (R,S)-3-methyl-2H,6aH-pyrrolidino[2″,1″-3′,2′]1,3-oxazino[5′,6′-4,5]benzo[e]1,3-oxazaperhydroine-4,10-dione]",10,0.2,195 to 196 °C
"CCN1COc2cc(C(=O)C3CCCCC3)ccc2C1=O [Example 38, 7-(cyclohexylcarbonyl)-3-ethyl-2H-benzo[e]1,3-oxazaperhydroin-4-one]",30,15,–
"O=C1c2cc3c(cc2OCC1CO)C(=O)N1CCCC1O3 [Example 20, (R,S),(R,S)-3-(hydroxymethyl)-6aH-chromano[7,6-e]pyrrolidino[2,1-b]1,3-oxazine-4,10-dione]",–,–,189 to 190 °C
"CCCN1COc2cc3c(cc2C1=O)OC1CCCN1C3=O (racemic) [Example 24, (R,S)-3-propyl-2H,6aH-pyrrolidino[2″,1″-3′,2′]1,3-oxazino[5′,6′-4,5]benzo[e]1,3-oxazaperhydroine-4,10-dione]",–,–,153 to 154 °C
"O=C1c2cc3nc4n(c(=O)c3cc2OC2CCCN12)CCC4 (racemic) [Example 6, (R,S)-6a-hydro-3aH-pyrrolidino[2,1-b]pyrrolidino[2′,1′-2,3]quinazolino[7,6-e]1,3-oxazaperhydroine-6,12-dione]",100,1.4,–
"CC(C)N1COc2cc3c(cc2C1=O)OC1CCCN1C3=O (racemic) [Example 25, (R,S)-3-(methylethyl)-2H,6aH-pyrrolidino[2″,1″-3′,2′]1,3-oxazino[5′,6′-4,5]benzo[e]1,3-oxazaperhydroine-4,10-dione]",–,–,204 to 205 °C
"COC(=O)CN1COc2cc3c(cc2C1=O)OC1CCCN1C3=O (racemic) [Example 33, (R,S)-methyl 2-(4,10-dioxo-2H,6aH-pyrrolidino[2″,1″-3′,2′]1,3-oxazino[5′,6′-4,5]benzo[e]1,3-oxazaperhydroin-3-yl)acetate]",–,–,161 to 162 °C
"O=C1c2cc3c(cc2OCN1C1CCCC1)C(=O)N1CCCC1O3 (racemic) [Example 26, (R,S)-3-cyclopentyl-2H,6aH-pyrrolidino[2″,1″-3′,2′]1,3-oxazino[5′,6′-4,5]benzo[e]1,3-oxazaperhydroine-4,10-dione]",–,–,184 to 188 °C
"O=C1c2cc3c(cc2OC2CCCN12)C(=O)N1OCCC1O3 [Example 46, (R,S), (R,S)-2H,3H,3aH,9aH--1,2-oxazolidino[3,2-b]pyrrolidino[2″,1″-3′,2′](1,3-oxazino)[5′,6′-5,4]benzo[e]1,3-oxazaperhydroine-6,12-dione]",3,2.4,–
